The text below walks through data of patent publication US8790891B2, “Microfluidic cell motility assay” (The General Hospital Corporation, priority 2009, dated 2014).

The structures appear in SMILES notation. “Also recorded” adds a separate entry of the source.

The assay concerns MDA-MB231 breast cancer cells. In words: Microcapillary motility assay (MMA) with agents that alter microtubule dynamics. It counts as cell-based, human. The settings on record: for kymograph analysis of single cell motility: 18 hour period, FIG. 13; for concentration at which persistent motility is inhibited: microcapillaries, no chemical gradient; for effect on persistent migration behavior: different concentrations, summary of Example 11; for effect on speed of cancer cell migration through the microcapillary array: result in words. From the text:
Referring now to FIGS. 7A-7B, a microcapillary motility assay (MMA) device 700 including microfluidic devices 750 were manufactured by casting polydimethyl siloxane (PDMS, Dow Corning, Midland. Mich.) on a microstructured mold. The microstructured mold was fabricated using standard photolithographic technologies. A silicon wafer was coated with a 10 μm thin layer of photoresist (SU8, Microchem, Newton, Mass.) and processed following the standard protocol as recommended by the manufacturer. A second, thicker layer of approximately 50 μm was then photopatterned on the same wafer and aligned with respect to the first layer in order to define the connections between the capillaries and the wells. The mold was placed in a Petri-dish and covered with PDMS freshly prepared according to the manufacturer's instructions. After baking for 8 hours at 65° C., the cast PDMS was removed from the mold, one microwell for each device was punched using a 2 mm puncher, and each device was cut using a 5 mm puncher. After exposure for 20 seconds to oxygen plasma in a plasma asher (March, Concord, Calif.), the devices were individually bonded on the coverslips at the bottom of 24-well plates (Mattek, Ashland, Mass.).
After bonding, and while the PDMS was still hydrophilic, 2 μL of a solution of 2 μg/mL collagen IV was added inside the center microwell of each device. The strong capillary force ensured the collagen solution filled the capillaries. Excess collagen was later washed away by adding 5 μL of phosphate buffer (PBS) in only one well of the devices. Alternatively, 2 μL of Matrigel (BD Biosciences, San Jose, Calif.) was added in one well at 4° C. and the entire plate was heated to 37° C. for 5 minutes.
Before performing each migration assay, cells growing in cell culture flasks were washed with PBS, lifted from the surface using trypsin or 10 mM calcium chelator solution in buffer (EDTA, Sigma Aldrich, St. Louis, Mo.), suspended into 10 mL of media, centrifuged, and re-suspended into media at 10^6 cells/mL. Cells were then seeded in one well of each device, by directly pipetting 3-4 μL of the cell suspension in each well. After loading the cells, 3 mL of corresponding media were added to each well of the multi-well plate, completely covering the devices.
To image the moving cells, the multi-well plate was placed on the motorized stage of a Zeiss Axiovert microscope fitted with an environmental chamber. The environment was set at 37.7° C. and 5% CO2. Cells were imaged using 10× objective and phase contrast. Three separate images from each array were acquired every 6 minutes for 24-48 hours. Because cell motility is restricted only along the capillary, in one linear dimension, the motility is easy to image and easy to quantify for extended periods of times. We have tracked cells for more than 72 hours.
To quantify the migration of individual cells, images were analyzed using the manual tracking function in the Image J software. The middle of cells was tracked through the series of frames and only cells entering the microcapillaries were tracked. At least 50 cells migrating through the capillaries were tracked for each condition. Average velocity over 12 hours was calculated from temporary velocities over each 6 minutes interval and presented as mean and standard error of the mean.
To probe into the mechanisms responsible for persistent cell migration, we exposed the cells to drugs that alter microtubule dynamics while performing the MMA described in Example 2 using the microfluidic device shown in FIG. 2.

Where [1] appears, read: MDA-MB231 breast cancer line, FIG. 11.

Regarding `CC(=O)O[C@H]1C(=O)[C@@]2(C)[C@H]([C@H](OC(=O)c3ccccc3)[C@]3(O)C[C@H](OC(=O)[C@H](O)[C@@H](NC(=O)c4ccccc4)c4ccccc4)C(C)=C1C3(C)C)[C@]1(OC(C)=O)CO[C@@H]1C[C@@H]2O` [Taxol, Paclitaxel], the “effect on persistent migration behavior” value is recorded as “does not alter the persistent migration” and the “effect on speed of cancer cell migration through the microcapillary array” value is given as “significantly decrease the speed”. Moreover, for the setting “taxol 12 nM”, the “kymograph analysis of single cell motility” value is “persistent movement along the microcapillary; also recorded: reverses direction at the end of the microcapillary”. Under setting [1], the “concentration at which persistent motility is inhibited” value is recorded as “above 100 ng/mL”. Moreover, the “speed of the fastest cells under drug” value (Taxol between 1 and 10 μM, some cells only) was more than 100 μm/hour.
Turning to `COC(=O)Nc1nc2ccc(C(=O)c3cccs3)cc2[nH]1` [Nocodazole], the “effect on persistent migration behavior” value is recorded as “alteration of the persistent migration behavior” and the “effect on speed of cancer cell migration through the microcapillary array” value is recorded as “significantly decrease the speed”. Also, under “nocodazole 0.05 ng/mL”, the “kymograph analysis of single cell motility” value is “frequent changes of direction and less persistence”. Moreover, for the setting “MDA-MB231 breast cancer line, FIG. 11, only Nocodazole”, the “concentration at which migration of the fastest moving cells is inhibited” value is “above 1 ng/mL”. Moreover, under setting [1], the “concentration at which persistent motility is inhibited” value was “above 0.5 ng/mL”. For the setting “all cells in the population”, the “concentration that significantly altered the speed of migration for all cells in the population” value was more than 1 µM. For the same compound, the “concentration of significant decrease in motility (dose response)” value (migration through microcapillary array) was less than 100 nM.
